How the values were obtained:
PBMC = experiment: cells; conditions: Homo sapiens
in vivo [1] = conditions: dog, iv, 5 mg/kg
in vivo [2] = conditions: dog, po, 10 mg/kg
in vivo [3] = conditions: mouse, plasma, po, 1 mg/kg
in vivo [4] = conditions: mouse, po, 1 mg/kg
in vivo [5] = conditions: mouse, po, 1 mg/kg; remark: listed apart in the source
in vivo [6] = conditions: dog, iv, 5 mg/kg; remark: listed apart in the source
in vivo [7] = conditions: dog, iv, 5 mg/kg; remark: listed apart in the source
in vivo [8] = conditions: dog, plasma, po, 10 mg/kg
in vivo [9] = conditions: dog, po, 10 mg/kg; remark: listed apart in the source
in vivo [10] = conditions: dog, po, 10 mg/kg; remark: listed apart in the source
in vivo [11] = conditions: mouse, iv, 1 mg/kg
in vivo [12] = conditions: mouse, iv, 1 mg/kg; remark: listed apart in the source
in vivo [13] = conditions: mouse, iv, 1 mg/kg; remark: listed apart in the source
in vivo [14] = conditions: mouse, iv, 1 mg/kg; remark: listed apart in the source
in vivo [15] = conditions: mouse, po, 1 mg/kg; remark: listed apart in the source
in vivo [16] = conditions: dog, iv, 5 mg/kg; remark: listed apart in the source
hERG (KCNH2) = hERG (KCNH2) (Homo sapiens, UniProt Q12809); experiment: in vitro
Sequence of hERG (KCNH2) (Q12809 whole entry): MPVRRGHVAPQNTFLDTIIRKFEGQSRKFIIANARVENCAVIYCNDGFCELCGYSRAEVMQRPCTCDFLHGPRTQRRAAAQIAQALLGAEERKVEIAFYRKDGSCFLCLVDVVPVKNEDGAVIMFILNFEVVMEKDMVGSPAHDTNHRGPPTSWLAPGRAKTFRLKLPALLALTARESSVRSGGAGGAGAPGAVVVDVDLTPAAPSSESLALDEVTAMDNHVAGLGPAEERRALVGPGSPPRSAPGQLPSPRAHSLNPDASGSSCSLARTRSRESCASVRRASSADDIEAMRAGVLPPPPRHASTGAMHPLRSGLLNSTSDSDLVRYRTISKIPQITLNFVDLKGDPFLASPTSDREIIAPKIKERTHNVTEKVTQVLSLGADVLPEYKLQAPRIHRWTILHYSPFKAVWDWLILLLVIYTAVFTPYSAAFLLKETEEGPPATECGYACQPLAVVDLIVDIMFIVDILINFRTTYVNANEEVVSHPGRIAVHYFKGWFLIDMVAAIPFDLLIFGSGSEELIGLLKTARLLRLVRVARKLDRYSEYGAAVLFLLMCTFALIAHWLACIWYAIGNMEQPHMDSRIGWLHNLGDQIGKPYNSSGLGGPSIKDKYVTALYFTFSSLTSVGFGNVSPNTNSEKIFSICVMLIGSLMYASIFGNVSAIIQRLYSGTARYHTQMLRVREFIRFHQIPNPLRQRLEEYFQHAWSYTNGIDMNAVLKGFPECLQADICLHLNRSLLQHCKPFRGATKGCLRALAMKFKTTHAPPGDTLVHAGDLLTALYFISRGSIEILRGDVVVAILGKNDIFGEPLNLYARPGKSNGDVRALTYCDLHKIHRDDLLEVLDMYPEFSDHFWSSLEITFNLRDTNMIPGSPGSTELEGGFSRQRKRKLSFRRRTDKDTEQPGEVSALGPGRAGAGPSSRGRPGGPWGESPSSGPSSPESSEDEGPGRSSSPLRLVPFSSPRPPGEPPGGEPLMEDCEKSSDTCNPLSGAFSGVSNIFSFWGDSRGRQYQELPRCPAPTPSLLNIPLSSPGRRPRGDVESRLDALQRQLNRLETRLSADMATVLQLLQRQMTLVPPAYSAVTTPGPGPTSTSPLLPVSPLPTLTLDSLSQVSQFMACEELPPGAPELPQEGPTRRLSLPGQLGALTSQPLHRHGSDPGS

- clearance (in vivo [1]): 3.6 mL/min/kg
- Cmax (in vivo [2]): 18.9 µM
- AUC (in vivo [3]): 0.306 µM·h
- Cmax (in vivo [4]): 0.083 µM
- Tmax (in vivo [5]): 0.25 h
- MRT (in vivo [6]): 3.3 h
- half-life (in vivo [7]): 3.5 h
- AUC (in vivo [8]): 115 µM·h
- bioavailability (in vivo [9]): 100%
- Tmax (in vivo [10]): 2 h
- Vd (in vivo [11]): 8.5 L/kg
- MRT (in vivo [12]): 4.4 h
- clearance (in vivo [13]): 32 mL/min/kg
- half-life (in vivo [14]): 5.4 h
- bioavailability (in vivo [15]): 41%
- Vd (in vivo [16]): 0.7 L/kg
SMILES: CN1C(=O)N(c2cc(Cl)cc(Cl)c2)C(=O)[C@]12CN(Cc1cc(C(=O)O)cs1)C[C@H]2c1ccc(C#N)cc1
- IC50 (PBMC): 280 nM
- inhibition at 30 µM (hERG (KCNH2)): 24%

Reference: ChEMBL document CHEMBL1138879 (J Med Chem, 2006)
